In the test the test system is intertrigo. As to the kind of experiment: Topical application of the skin salve to patients suffering from intertrigo. The test is classed as in vivo, human. As to conditions: Example 2: person with diabetes, underside of breasts; before use of the skin salve. How it is done:
In this experiment the skin salve made in Example 1 was evaluated on a person suffering from diabetes and intertrigo on the underside of their breasts. The intertrigo had caused the skin to be inflamed, burned, and was raw in some areas. This skin condition was painful and was aggravated by the patient's bra, heat, and sweat. Additionally, the intertrigo was an unsightly rash.
This patient had treated their intertrigo with a variety of over-the-counter salves and powders without success.
This patient topically applied the skin salve of this invention which was made by the procedure described in Example 1 to the inflamed skin under their breasts on two consecutive evenings after taking a bath. […]
In this experiment the skin salve made in Example 1 was evaluated on another person suffering from diabetes and intertrigo on the underside of their breasts. […]
In this experiment the skin salve made in Example 1 was evaluated on another person suffering from intertrigo on the underside of their breasts. […]
In this experiment the skin salve made in Example 1 was evaluated on a person suffering from intertrigo on the underside of their breasts. […]
In this experiment the skin salve made in Example 1 was evaluated on a person suffering from intertrigo on the underside of their breasts and the underside of their belly. […]

Regarding `CC(C)O` [isopropyl alcohol], the “effect on intertrigo of the patient's earlier treatments” value is given as “without any relief”.
